From patent publication US20140024041A1, “SOFT SUBSTRATE FOR CELL CULTURE AND PROCESS FOR PREPARING THE SAME” (COMMISSARIAT A L'ENERGIE ATOMIQUE ET AUX ENERGIES …, priority 2011, published 2014)

Columns and labels:
[1] = test system: MCF10A expressing inducible ErbB2 receptor; assay: Cell traction force measurement from crossbow micropattern shortening, ErbB2 inducible cells; format: cell-based, human; details: ErbB2 receptors activated with ligand, 1 μM, 48 hr before measurement, FIG. 5C
Excerpt: When actin cables have an unpredictable spatial distribution, a given deformation cannot be directly assigned to a defined force magnitude. Indeed, forces applied on adjacent adhesion sites both affect local deformations, due to the continuous nature of the substrate. Each deformation results from local and distant forces. So the calculation of the force field is highly dependent on the spatial distribution of force application sites and the relationship between deformation and forces varies from one cell to the other. The inventors hypothesized that in cells developing a reproducible architecture and a controlled pattern of force application, a given local deformation could be assigned to a defined value of the contractile force. […] When the deformation was measured along the shortest, and therefore most contracted, cell axis, the correlation was improved (FIG. 4C). […] On the crossbow, a single image acquisition was sufficient to measure the bar length and read the corresponding average cell traction force using the calibration curve (FIG. 5F). […]
The culture of MCF10A cells and the generation of ΔCK2β cell line were described previously (Deshiere et al (2008) Mol Cell Biochem 316(1-2):107-113). […] Substrate relaxation was assessed by detaching cells with trypsin. […]

MCF10A cells = assay: Cell traction force measurement from crossbow micropattern bar shortening on PAA; format: cell-based, human
Procedure: Non-tumorigenic human epithelial cells from the mammary gland, MCF10A, were plated on the micropatterned PAA substrates. Cells specifically attached to the fibronectin coated micropatterns since non-exposed PAA regions prevented protein adsorption (FIG. 2D). The effect of micropattern geometry on cell traction forces orientation was tested on various shapes: disc, pacman and crossbow (FIG. 3A). Spread cells exerted traction forces on the micropattern that could be measured by looking at the displacement of fluorescent beads embedded in the PAA gel (see FIG. 3B and Material and Methods). Particle Image Velocimetry followed by individual particle tracking were used to measure bead displacements ((Marganski et al (2003) Methods Enzymol 361:197-211; Sabass et al (2008) Biophys J 94(1):207-220). Force fields were calculated from the bead displacement fields by using the Fourier transform traction cytometry ((Sabass et al, supra; Butler et al (2002) Am J Physiol Cell Physiol 282(3):C595-605). Force fields exerted by individual cells were overlaid and averaged to quantify their reproducibility (FIG. 3C, D). On homogeneously coated regions cells developed forces that were randomly distributed from one cell to the other. In cells constrained on disc shaped micropatterns, forces were still randomly oriented but their magnitudes were lowered due to reduced cell spreading. In cells constrained on pacman shaped micropatterns, forces distribution was geometrically biased due to enhanced cell contraction above non adhesive regions. […] Importantly, most of the traction forces were reproducibly oriented upward, along the straight adhesive bar on the extremity of which the inventors measured the highest pressure (FIG. 3D). […]
When actin cables have an unpredictable spatial distribution, a given deformation cannot be directly assigned to a defined force magnitude. […] When the deformation was measured along the shortest, and therefore most contracted, cell axis, the correlation was improved (FIG. 4C). […]

## CCC(C)(C)C(=O)C(=O)N1CCCC[C@H]1C(=O)O[C@H](CCc1ccc(OC)c(OC)c1)c1cccc(OCC(=O)NCCNC(=O)COc2cccc([C@@H](CCc3ccc(OC)c(OC)c3)OC(=O)[C@@H]3CCCCN3C(=O)C(=O)C(C)(C)CC)c2)c1 [AP 1510]
[1]
  level of cell contraction vs WT cells: no significant changes

## Cc1ccc2c(c1)C(=O)C1(O)CCN(c3ccccc3)C1=N2 (stereo not shown) [Blebbistatin]
MCF10A cells; 50 μM, single cell, FIG. 5B
  force magnitude decrease over time: follows a single exponential decay
MCF10A cells; increasing dose, crossbow bar length, FIG. 5A
  force inhibition profile in response to increasing dose: matched the myosin II inhibition profile

## TGFb1: known to induce epithelial to mesenchymal transition; from R&D systems
MCF10A cells; 2 ng/mL for 2 days before plating, FIG. 5C
  level of cell contraction vs WT cells (crossbow shortening): significantly higher level of cell contraction
